Consider 17 compounds from ChEMBL document CHEMBL4619702, “Inhibitors of the Zika virus protease NS2B-NS3” (Bioorg Med Chem Lett, 2020).

The target of test [1] is T1, Nonstructural protein 3 (Zika virus) (UniProt A0A024AXB9). Put plainly: Inhibition of Zika virus NS2B-NS3 protease assessed as as ratio of K(obs)/[I] using biotin-tagged peptide (P4-P1) as substrate.
Test [2] has as its target T2, Nonstructural protein 3 (Zika virus, UniProt A0A024AXB9). In words: Inhibition of Zika virus NS2B-NS3 protease.
The target of test [3] is T1, Nonstructural protein 3 (Zika virus). In words: (§1) Inhibition of Zika virus NS2B-NS3 protease by cell based assay.
The target of test [4] is T2, Nonstructural protein 3. The description is as §1.
For test [5], the target named is T3, Genome polyprotein (West Nile virus, UniProt P06935). In words: Inhibition of West Nile virus NS2B-NS3 protease.
T3 sequence (P06935 1371-1501 limits assumed): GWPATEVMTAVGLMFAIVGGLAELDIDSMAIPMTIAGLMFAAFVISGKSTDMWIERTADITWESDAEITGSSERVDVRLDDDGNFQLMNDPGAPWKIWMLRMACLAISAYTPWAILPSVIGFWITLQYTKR
T3 sequence (P06935 1502-2120 limits assumed): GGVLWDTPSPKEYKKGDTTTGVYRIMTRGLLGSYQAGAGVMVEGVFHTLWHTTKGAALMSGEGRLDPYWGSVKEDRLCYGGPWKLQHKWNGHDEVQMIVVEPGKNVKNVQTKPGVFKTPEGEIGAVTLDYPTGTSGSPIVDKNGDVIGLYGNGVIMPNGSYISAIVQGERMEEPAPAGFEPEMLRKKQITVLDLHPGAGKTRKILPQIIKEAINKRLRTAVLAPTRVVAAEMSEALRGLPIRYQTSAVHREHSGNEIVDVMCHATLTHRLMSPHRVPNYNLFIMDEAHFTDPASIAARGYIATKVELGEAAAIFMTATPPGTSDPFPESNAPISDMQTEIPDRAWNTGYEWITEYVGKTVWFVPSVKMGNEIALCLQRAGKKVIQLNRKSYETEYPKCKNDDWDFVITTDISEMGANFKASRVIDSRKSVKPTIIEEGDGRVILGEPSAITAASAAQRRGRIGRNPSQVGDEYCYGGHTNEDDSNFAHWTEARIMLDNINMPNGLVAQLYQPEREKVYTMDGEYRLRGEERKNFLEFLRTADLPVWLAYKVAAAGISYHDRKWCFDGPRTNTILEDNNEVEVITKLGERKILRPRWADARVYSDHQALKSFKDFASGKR
Test [6] concerns the target T3, Genome polyprotein. In words: Binding affinity to West Nile virus NS2B-NS3 protease.
Test [7] concerns the target T2, Nonstructural protein 3. In words: Binding affinity to Zika virus NS2B-NS3 protease.
Test [8] can be described thus: Allosteric inhibition of Flavivirus NS2B-NS3 protease.
The nature of test [9]: Allosteric inhibition of Flavivirus NS2B-NS3 protease by cell based assay. The settings on record: Orthoflavivirus.
Test [10] has as its target T2, Nonstructural protein 3. In words: Allosteric inhibition of Zika virus NS2B-NS3 protease.
For test [11], the target named is T2, Nonstructural protein 3. Put plainly: Inhibition of N-terminal His-tagged Zika virus NS2B-NS3 protease (1 to 187 residues) using Boc-Gly-Arg-Arg-AMC as substrate.
Test [12] deals with T2, Nonstructural protein 3. Put plainly: Binding affinity to N-terminal His-tagged Zika virus NS2B-NS3 protease (1 to 187 residues) using Boc-Gly-Arg-Arg-AMC as substrate.

Where a SMILES comes first, the peptide text is derived from it. The star is where a group is joined. NHBn = c1ccc(CN*)cc1

In the case of `CN[C@@H](C)C(=O)N[C@H](C(=O)N1CCC[C@H]1c1nc(C(=O)c2ccc(F)cc2)cs1)C1CCCCC1`, the Ratio in test [1] is 2.94 ×10⁶ /M/s.

Take `Oc1cccc(-c2c3nc(c(-c4cccc(O)c4)c4ccc([nH]4)c(-c4cccc(O)c4)c4nc(c(-c5cccc(O)c5)c5ccc2[nH]5)CC4)C=C3)c1` [TEMOPORFIN]: half-maximal inhibition in test [2] (IC50) required 1100 nM. Besides, in [3], the 90% effect level (EC90) was put at 120 nM. Further, in test [4], a half-maximal effect (EC50) was put at 22 nM.

With `CN[C@@H](C)C(=O)N[C@H]1CC[C@H]2CC[C@@H](C(=O)NC(c3ccccc3)c3ccccc3)N2C1=O`, the IC50 in test [5] and in [2] was 1900 nM in each case. Moreover, the Kd in test [6] and in test [7] was 2000 nM each time.

The compound `CN[C@@H](C)C(=O)N[C@H](C(=O)N1CCC[C@H]1C(=O)Nc1sc(-c2ncco2)nc1-c1ccccc1)C1CCCCC1` [GDC-0917] returned a half-inhibitory concentration (IC50) in test [2] of 300 nM.

In [2], `O=C1OC2(c3ccccc31)c1cc(I)c(O)c(I)c1Oc1c2cc(I)c(O)c1I` [ERYTHROSINE] came in with an IC50 of 1700 nM. In test [4], a half-maximal effect (EC50) was put at 600 nM.

In the case of `CC(C)[C@H](NC(=O)[C@H](C)N)C(=O)N1CCC[C@H]1C(=O)NCc1ccccc1` (H-Ala-Val-Pro-NHBn), the affinity in [2] corresponds to a Ki of 140 nM.

Consider `Cc1ccc(C(=O)Nc2ccc(S(=O)(=O)O)c3cc(S(=O)(=O)O)cc(S(=O)(=O)O)c23)cc1NC(=O)c1cccc(NC(=O)Nc2cccc(C(=O)Nc3cc(C(=O)Nc4ccc(S(=O)(=O)O)c5cc(S(=O)(=O)O)cc(S(=O)(=O)O)c45)ccc3C)c2)c1` [SURAMIN], for which the EC50 in test [7] lay in the range of 1930 to 39800 nM. The compound further displayed an IC50 in [2] of 47000 nM. Further, in test [4], the affinity, expressed as Kd, was 28000 nM.

In turn, `CC[C@H](NC(=O)[C@H](C)NC)C(=O)N1C[C@@H](O)C[C@H]1Cc1c(-c2[nH]c3cc(F)ccc3c2C[C@@H]2C[C@H](O)CN2C(=O)[C@H](CC)NC(=O)[C@H](C)NC)[nH]c2cc(F)ccc12` [BIRINAPANT] yielded an IC50 in test [8] of 200 nM. The EC50 in test [4] fell in the range of 300 to 600 nM.

In the case of `CC(C)C[C@H]1C(=O)N2CCC[C@H]2[C@]2(O)O[C@](NC(=O)[C@@H]3C=C4c5cccc6[nH]c(Br)c(c56)C[C@H]4N(C)C3)(C(C)C)C(=O)N12` [BROMOCRIPTINE], inhibition in [2] was half-maximal at 21600 nM (IC50). For the same compound, a half-maximal response in [4] (EC50) required 13000 nM.

On to `CN[C@@H](C)C(=O)N[C@H]1CCCC[C@H]2CC[C@@H](C(=O)NC(c3ccccc3)c3ccccc3)N2C1=O`, for which the IC50 in test [2] came out at 100 nM.

As to `C[C@@H]1CN(CC(=O)N2CC(C)(C)c3nc(CO)c(Cc4ccc(F)cc4)cc32)[C@@H](CN2CCOC[C@H]2C)CN1` [ASTX-660], in test [2], the Ki was in the range of 800 to 8900 nM.

Consider `C[C@@H]1CN(CC(=O)N2CCCC2)CCN1`, for which inhibition in test [8] was half-maximal at 380 nM (IC50). Further, it took 1000 nM to reach a half-maximal effect in test [9] (EC50).

`C[C@@H]1CN(CC(=O)N2CC(C)(C)c3ncc(Cc4ccc(F)cc4)cc32)[C@@H](CN2CCOC[C@H]2C)CN1` registered an IC50 in test [10] of 820 nM.

In [2], `CCN(CCO)CCCC(C)Nc1ccnc2cc(Cl)ccc12` (stereo unspecified) [HYDROXYCHLOROQUINE] had a Ki of 92300 nM.

For the compound `CN[C@@H](C)C(=O)N[C@H]1CN(C(=O)CC(C)C)CC[C@H]2CC[C@@H](C(=O)NC(c3ccccc3)c3ccccc3)N2C1=O` [XEVINAPANT], in test [11], the IC50 stood at 4100 nM and the Ki turned out to be 13500 nM. In test [12], the Kd is 9000 nM.

As for `CN[C@@H](C)C(=O)N[C@H](C(=O)N1CC[C@H](C)[C@H]1C(=O)Nc1ccccc1-c1ncccn1)C1CCCCC1`, the Ki in test [2] was 430 nM.

`CO[C@@H]1[C@@H](OC(N)=O)[C@@H](O)[C@H](Oc2ccc3c(O)c(NC(=O)c4ccc(O)c(CC=C(C)C)c4)c(=O)oc3c2C)OC1(C)C` [NOVOBIOCIN]: in test [2], half-maximal inhibition (IC50) required 14200 nM. For the same compound, the EC50 in test [4] was 24800 nM.
